Reference: patent US20240025883A1, “PYRIMIDIN-2-YL SULFONAMIDE DERIVATIVES” (Hoffmann-La Roche Inc., priority 2021, published 2024)

Target: human GPR17 short isoform (Homo sapiens (Human), UniProt Q13304)
Test: GPR17 cAMP assay (hGPR17 cAMP, antagonist mode against EC80 of MDL29,951)
Type: cell-based
Settings: CHO-K1 cells stably expressing human GPR17 short isoform; EC80 of agonist MDL29,951; forskolin 15 μM
Experimental: GPR17 cAMP Assay Protocol:
CHO-K1 cells stably expressing vector containing untagged human GPR17 short isoform (Roche) were cultured at 37° C./5% CO2 in DMEM (Dulbecco's Modified Eagle Medium):F-12 (1:1) supplemented with 10% foetal bovine serum and 400 μg/ml Geneticin.
Changes in intracellular cyclic adenosine monophosphate (cAMP) levels were quantified using the Nano-TRF Detection Assay kit (Roche Diagnostics, Cat. No. 05214386001). This assay allows for direct cAMP quantification in a homogeneous solution, cAMP is detected based on time-resolved fluorescence energy transfer (TR-FRET) and competitive binding of ruthenylated cAMP and endogenous cAMP to an anti-cAMP monoclonal antibody labeled with AlexaFluor-700. The Ruthenium complex serves as the FRET donor and transfers energy to AlexaFluor-700. The FRET signal is inversely proportional to the cAMP concentration.
CHO-GPR17S cells were detached with Accutase and resuspended in assay buffer consisting of Hank's Balanced Salt Solution (HBSS), 10 mM HEPES (4-(2-hydroxyethyl) piperazine-1-ethanesulfonic acid solution) and 0.1% bovine serum albumin (pH 7.4). The cells were seeded in black 384-well plates (Corning) at a density of 10,000 cells/20 μl assay buffer until the addition of compounds.
Test antagonist compounds were serially diluted in dimethyl sulfoxide (DMSO) and spotted in 384-well plates. The compounds were then diluted in HBSS buffer supplemented with an EC80 concentration of MDL29,951 (3-(2-Carboxy-4,6-dichloroindol-3-yl)propionic acid) (GPR17 agonist) plus 3-Isobutyl-1-methylxanthine (IBMX) (0.5 mM final concentration) and added to the cells at room temperature. Forskolin (15 μM final concentration) was added 5 minutes after the test compounds and the cells were incubated at room temperature for 30 minutes. The assay was stopped by adding cAMP detection mix (containing detergents for cell lysis) for 90 minutes at room temperature.
Cellular cAMP was measured using a Paradigm reader (Molecular Devices). The raw data was used to calculate the FRET signal based on the assay's P-factor as per cAMP kit instructions. The data was normalized to the maximal activity of a reference antagonist and dose response curves were fitted to the percent activity of the test compounds using a sigmoidal dose response model (Genedata Screener).

human GPR17 short isoform, sequence (Q13304 29-367): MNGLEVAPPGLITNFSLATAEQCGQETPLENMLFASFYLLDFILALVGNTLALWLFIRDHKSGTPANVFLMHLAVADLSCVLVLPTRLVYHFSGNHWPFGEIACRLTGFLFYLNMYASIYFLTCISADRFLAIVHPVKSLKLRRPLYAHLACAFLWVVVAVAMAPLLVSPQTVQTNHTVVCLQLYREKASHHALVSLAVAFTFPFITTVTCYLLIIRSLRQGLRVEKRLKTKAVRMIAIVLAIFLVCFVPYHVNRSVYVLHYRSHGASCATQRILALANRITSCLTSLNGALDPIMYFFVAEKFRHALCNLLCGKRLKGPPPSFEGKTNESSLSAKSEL

COc1nc(NS(=O)(=O)c2c[nH]c3c(F)c(Cl)ccc23)ncc1OCCF [Example 2, 6-chloro-7-fluoro-N-[5-(2-fluoroethoxy)-4-methoxy-pyrimidin-2-yl]-1H-indole-3-sulfonamide]
IC50: 36 nM

COc1nc(NS(=O)(=O)c2c[nH]c3c(Cl)c(Cl)ccc23)ncc1OCCF [Example 3, 6,7-dichloro-N-[5-(2-fluoroethoxy)-4-methoxy-pyrimidin-2-yl]-1H-indole-3-sulfonamide]
IC50: 50 nM

COc1nc(NS(=O)(=O)c2c[nH]c3c(C(F)F)c(Cl)ccc23)ncc1OCCF [Example 4, 6-chloro-7-(difluoromethyl)-N-[5-(2-fluoroethoxy)-4-methoxy-pyrimidin-2-yl]-1H-indole-3-sulfonamide]
IC50: 34 nM

COc1nc(NS(=O)(=O)c2c[nH]c3c(OC4CC4)c(Cl)ccc23)ncc1OCCF [Example 5, 6-chloro-7-(cyclopropoxy)-N-[5-(2-fluoroethoxy)-4-methoxy-pyrimidin-2-yl]-1H-indole-3-sulfonamide]
IC50: 103 nM

CCOc1cnc(NS(=O)(=O)c2c[nH]c3cc(Cl)ccc23)nc1OC [Example 6, 6-chloro-N-(5-ethoxy-4-methoxy-pyrimidin-2-yl)-1H-indole-3-sulfonamide]
IC50: 129 nM

COCCOc1cnc(NS(=O)(=O)c2c[nH]c3cc(Cl)ccc23)nc1OC [Example 7, 6-chloro-N-[4-methoxy-5-(2-methoxyethoxy)pyrimidin-2-yl]-1H-indole-3-sulfonamide]
IC50: 403 nM

COc1nc(NS(=O)(=O)c2c[nH]c3cc(Cl)ccc23)ncc1OC(F)F [Example 8, 6-chloro-N-[5-(difluoromethoxy)-4-methoxy-pyrimidin-2-yl]-1H-indole-3-sulfonamide]
IC50: 182 nM

COc1nc(NS(=O)(=O)c2c[nH]c3cc(Cl)ccc23)ncc1OCCOC(F)F [Example 9, 6-chloro-N-[5-[2-(difluoromethoxy)ethoxy]-4-methoxy-pyrimidin-2-yl]-1H-indole-3-sulfonamide]
IC50: 218 nM

COc1nc(NS(=O)(=O)c2c[nH]c3nc(Cl)ccc23)ncc1OCCF [Example 10, 6-chloro-N-[5-(2-fluoroethoxy)-4-methoxy-pyrimidin-2-yl]-1H-pyrrolo[2,3-b]pyridine-3-sulfonamide]
IC50: 96 nM

COc1nc(NS(=O)(=O)c2c[nH]c3cc(Cl)ccc23)nc(OC)c1Cl [Example 11, 6-chloro-N-(5-chloro-4,6-dimethoxy-pyrimidin-2-yl)-1H-indole-3-sulfonamide]
IC50: 91 nM

COc1nc(NS(=O)(=O)c2c[nH]c3cc(Cl)ccc23)nc(OC)c1Br [Example 12, N-(5-bromo-4,6-dimethoxy-pyrimidin-2-yl)-6-chloro-1H-indole-3-sulfonamide]
IC50: 20 nM

CCOc1nc(NS(=O)(=O)c2c[nH]c3cc(Cl)ccc23)nc(OC)c1Br [Example 13, N-(5-bromo-4-ethoxy-6-methoxy-pyrimidin-2-yl)-6-chloro-1H-indole-3-sulfonamide]
IC50: 236 nM

COc1nc(NS(=O)(=O)c2c[nH]c3cc(Cl)ccc23)nc(OCCF)c1Br [Example 14, N-[5-bromo-4-(2-fluoroethoxy)-6-methoxy-pyrimidin-2-yl]-6-chloro-1H-indole-3-sulfonamide]
IC50: 215 nM

CCc1cnc(NS(=O)(=O)c2c[nH]c3cc(Cl)ccc23)nc1OC [Example 15, 6-chloro-N-(5-ethyl-4-methoxy-pyrimidin-2-yl)-1H-indole-3-sulfonamide]
IC50: 132 nM

CCc1c(OC)nc(NS(=O)(=O)c2c[nH]c3cc(Cl)ccc23)nc1OC [Example 16, 6-chloro-N-(5-ethyl-4,6-dimethoxy-pyrimidin-2-yl)-1H-indole-3-sulfonamide]
IC50: 23 nM

COc1nc(NS(=O)(=O)c2c[nH]c3cc(Cl)ccc23)nc(OC)c1C [Example 17, 6-chloro-N-(4,6-dimethoxy-5-methyl-pyrimidin-2-yl)-1H-indole-3-sulfonamide]
IC50: 19 nM

COc1nc(NS(=O)(=O)c2c[nH]c3cc(Cl)ccc23)nc(OC(F)F)c1Br [Example 18, N-[5-bromo-4-(difluoromethoxy)-6-methoxy-pyrimidin-2-yl]-6-chloro-1H-indole-3-sulfonamide]
IC50: 83 nM

COc1nc(NS(=O)(=O)c2c[nH]c3cc(Cl)ccc23)nc(C2CC2)c1OCC(F)F [Example 19, 6-chloro-N-[4-cyclopropyl-5-(2,2-difluoroethoxy)-6-methoxy-pyrimidin-2-yl]-1H-indole-3-sulfonamide]
IC50: 49 nM

COc1nc(NS(=O)(=O)c2c[nH]c3cc(Cl)ccc23)nc(C)c1OCC(F)F [Example 20, 6-chloro-N-[5-(2,2-difluoroethoxy)-4-methoxy-6-methyl-pyrimidin-2-yl]-1H-indole-3-sulfonamide]
IC50: 399 nM

COc1nc(NS(=O)(=O)c2c[nH]c3cc(Cl)ccc23)ncc1CCCF [Example 21, 6-chloro-N-[5-(3-fluoropropyl)-4-methoxy-pyrimidin-2-yl]-1H-indole-3-sulfonamide]
IC50: 12 nM

COc1nc(NS(=O)(=O)c2c[nH]c3cc(Cl)ccc23)ncc1C#N [Example 23, 6-chloro-N-(5-cyano-4-methoxy-pyrimidin-2-yl)-1H-indole-3-sulfonamide]
IC50: 256 nM

COc1nc(NS(=O)(=O)c2csc3cc(Cl)ccc23)ncc1OCCF [Example 24, 6-chloro-n-[5-(2-fluoroethoxy)-4-methoxy-pyrimidin-2-yl]benzothiophene-3-sulfonamide]
IC50: 51 nM

COc1nc(NS(=O)(=O)c2c[nH]c3cc(Br)ccc23)ncc1OCCF [Example 25, 6-bromo-N-[5-(2-fluoroethoxy)-4-methoxy-pyrimidin-2-yl]-1H-indole-3-sulfonamide]
IC50: 23 nM

COc1nc(NS(=O)(=O)c2c[nH]c3cc(Cl)ccc23)ncc1C [Example 26, 6-chloro-N-(4-methoxy-5-methyl-pyrimidin-2-yl)-1H-indole-3-sulfonamide]
IC50: 809 nM

COc1nc(NS(=O)(=O)c2csc3nc(Cl)ccc23)ncc1OCCF [Example 27, 6-chloro-N-[5-(2-fluoroethoxy)-4-methoxy-pyrimidin-2-yl]thieno[2,3-b]pyridine-3-sulfonamide]
IC50: 83 nM

COc1nc(NS(=O)(=O)c2c[nH]c3cc(Cl)ccc23)ncc1C1CC1 [Example 28, 6-chloro-n-(5-cyclopropyl-4-methoxy-pyrimidin-2-yl)-1h-indole-3-sulfonamide]
IC50: 653 nM

CC#Cc1cnc(NS(=O)(=O)c2c[nH]c3cc(Cl)ccc23)nc1OC [Example 29, 6-chloro-n-(4-methoxy-5-prop-1-ynyl-pyrimidin-2-yl)-1h-indole-3-sulfonamide]
IC50: 80 nM

COc1nc(NS(=O)(=O)c2c[nH]c3nc(Br)ccc23)nc(OC)c1Br [Example 30, 6-bromo-n-(5-bromo-4,6-dimethoxy-pyrimidin-2-yl)-1h-pyrrolo[2,3-b]pyridine-3-sulfonamide]
IC50: 43 nM

COc1nc(NS(=O)(=O)c2c[nH]c3nc(Cl)ccc23)nc(OC)c1Br [Example 31, N-(5-bromo-4,6-dimethoxy-pyrimidin-2-yl)-6-chloro-1h-pyrrolo[2,3-b]pyridine-3-sulfonamide]
IC50: 76 nM

COc1nc(NS(=O)(=O)c2c[nH]c3cc(Cl)ccc23)nc(OC)c1C#N [Example 32, 6-chloro-N-(5-cyano-4,6-dimethoxy-pyrimidin-2-yl)-1H-indole-3-sulfonamide]
IC50: 232 nM

Cc1nc(NS(=O)(=O)c2c[nH]c3cc(Cl)ccc23)nc(C)c1Br [Example 33, N-(5-bromo-4,6-dimethyl-pyrimidin-2-yl)-6-chloro-1H-indole-3-sulfonamide]
IC50: 569 nM

O=S(=O)(Nc1ncc(OCC(F)F)cn1)c1c[nH]c2cc(Cl)ccc12 [Example 34, 6-chloro-N-[5-(2,2-difluoroethoxy)pyrimidin-2-yl]-1H-indole-3-sulfonamide]
IC50: 924 nM

CSc1nc(NS(=O)(=O)c2c[nH]c3cc(Cl)ccc23)ncc1OCC(F)F [Example 35, 6-chloro-N-[5-(2,2-difluoroethoxy)-4-methylsulfanyl-pyrimidin-2-yl]-1H-indole-3-sulfonamide]
IC50: 479 nM

COc1nc(NS(=O)(=O)c2c[nH]c3cc(Cl)ccc23)ncc1SC [Example 36, 6-chloro-N-(4-methoxy-5-methylsulfanyl-pyrimidin-2-yl)-1H-indole-3-sulfonamide]
IC50: 119 nM

COc1nc(NS(=O)(=O)c2c[nH]c3cc(Cl)ccc23)ncc1SC(F)F [Example 37, 6-chloro-N-[5-(difluoromethylthio)-4-methoxy-pyrimidin-2-yl]-1H-indole-3-sulfonamide]
IC50: 68 nM

COc1nc(NS(=O)(=O)c2c[nH]c3cc(Cl)ccc23)ncc1OC1CC1 [Example 38, 6-chloro-N-[5-(cyclopropoxy)-4-methoxy-pyrimidin-2-yl]-1H-indole-3-sulfonamide]
IC50: 2680 nM
